Where “and” joins values, the source holds several entries; their conditions need not be identical. Equal values may be shown once.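 How tested: cells in 96-well plates exposed to compound for 48 hours at five concentrations. GI50 marks 50% less growth. TGI marks complete inhibition of growth.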
Columns and labels:
Assay in all cases: DTP human tumour cell line panel, 48 h
[1] = test system: A549 NSCLC
[2] = test system: HCT-15 colon
[3] = test system: HT29 colon
[4] = test system: IGROV1 ovarian
[5] = test system: K-562 leukemia
[6] = test system: KM12 colon
[7] = test system: NCI-H460 lung
[8] = test system: OVCAR-3 ovarian
[9] = test system: OVCAR-4 ovarian
[10] = test system: SF-295 CNS
[11] = test system: NCI-H23 lung
[12] = test system: RPMI-8226 leukemia
[13] = test system: U251 CNS

Row | Structure (SMILES) | TGI [1] [µM] | TGI [2] | TGI [3] [µM] | TGI [4] [µM] | TGI [5] | TGI [6] [µM] | TGI [7] | TGI [8] [µM] | TGI [9] [µM] | TGI [10] [µM] | TGI [11] [µM] | TGI [12] [µM] | TGI [13] [µM] | GI50 [2] | GI50 [3] [µM] | GI50 [6] | GI50 [10]
1 | COc1ccc(C2=NC(CO)[C@H](c3ccccc3)O2)cc1OC (stereo not given in full) | > 100 | > 100 µM | > 100 | > 100 | > 100 µM | > 100 | > 100 µM | > 100 | > 100 | > 100 | – | – | – | – | – | – | –
2 | O=C(CC(=O)n1nc(-c2ccccc2)c(N=Nc2ccc([N+](=O)[O-])cc2)c1-c1ccccc1)Nc1ccc(Cl)cc1 | 56.3 | – | 58.5 | > 100 | 17.8 µM | > 100 | > 100 µM | 66.1 | > 100 | > 100 | > 100 | > 100 | 63.1 | – | – | – | –
3 | CC(=O)NC1=C(NCCO)C(=O)c2ccccc2C1=O | > 50 | > 50 µM | > 50 | > 50 | > 50 µM | > 50 | > 50 µM | > 50 | > 50 | > 50 | > 50 | – | > 50 | – | – | – | –
4 | COc1cc(Br)c(C=Nc2cccc3ccc(OS(=O)(=O)c4ccc([N+](=O)[O-])cc4)cc23)cc1OC | > 100 | > 100 µM | > 100 | > 100 | – | > 100 | > 100 µM | > 100 | > 100 | > 100 | > 100 | > 100 | > 100 | – | – | – | –
5 | O=C1C[C@@H]2[C@@H](C=CC23CCCC3)N1O | > 100 | > 100 µM | > 100 | > 100 | > 100 µM | > 100 | > 100 µM | > 100 | > 100 | > 100 | > 100 | > 100 | > 100 | – | – | – | –
6 | CN(C)c1ccc(-c2nc(N)nc3c2CCCC3)cc1 | > 100 | – | – | > 100 | > 100 µM | > 100 | > 100 µM | 96.7 | – | > 100 | > 100 | > 100 | > 100 | – | – | – | –
7 | COc1cc2c(c(OC)c1OC)[C@@H]1CCCCC[C@@H]1CCC2=O | > 100 | > 100 µM | > 100 | > 100 | > 72.5 µM | > 100 | > 100 µM | > 100 | > 100 | > 100 | > 100 | > 64.1 | > 100 | – | – | – | –
8 | COc1cc(CNc2ccc(C)cc2)cc(OC)c1OC | > 100 | 9.02 µM and > 37.2 µM | 0.852 | > 100 | > 42.3 µM and 25 µM | 2.33 | > 23.8 µM and 3.92 µM | 0.597 | > 100 | 0.439 | 3.08 | > 50.2 | 1.2 | 0.1 µM and 0.275 µM | 0.156 | 0.104 µM and 0.341 µM | 0.155 µM and 0.333 µM
9 | Nc1ccc(C(=O)NN2C(=O)C(Cl)C2c2ccc(O)cc2)cc1 (stereo not given) | > 100 | 50.1 µM | 45.1 | 32.9 | 49.5 µM | 47.2 | 54.8 µM | 29.2 | 41.4 | > 100 | 35.2 | > 100 | 29.6 | – | – | – | –
10 | COc1c(O)ccc(/C=N/NC(=S)NCOCCOC(C)=O)c1OC | > 100 | > 100 µM | > 100 | > 100 | > 100 µM | > 100 | > 100 µM | > 100 | > 100 | > 100 | > 100 | – | > 100 | – | – | – | –
11 | CC[n+]1c(/C=C/c2cc(C(=O)OC)n3c2sc2ccccc23)sc2ccccc21 | 38.3 | 34.9 µM | 33 | 32.9 | 31.2 µM | 29.1 | 34.3 µM | 42.4 | 34.2 | – | – | – | – | – | – | – | –
12 | COc1cc(C(C)c2cc3c(cc2OCCCCCOc2cc4c(cc2C(C)c2cc(OC)c(OC)c(OC)c2)OCO4)OCO3)cc(OC)c1OC (stereo not given) | > 100 | > 100 µM | > 100 | > 100 | > 100 µM | > 100 | > 100 µM | > 100 | > 100 | > 100 | > 100 | > 100 | > 100 | – | – | – | –
13 | C=Cc1c(-c2ccccc2)cnc2[nH]c3ccccc3c12 | > 50 | > 50 µM | > 50 | > 50 | > 50 µM | > 50 | > 50 µM | > 50 | > 50 | > 50 | > 50 | > 50 | > 50 | – | – | – | –
14 | COc1cc(Br)c(/C=N/N=C(\N)NO)cc1OC | 50.2 | > 100 µM | 86.3 | > 100 | 47.3 µM | > 100 | 27.2 µM | > 100 | > 100 | > 100 | 69 | > 100 | > 100 | – | – | – | –
15 | COC(=O)C(C(=O)C(=O)Nc1nc2ccc(OC)cc2s1)c1cnc2ccccc2n1 (stereo not given) | > 100 | > 100 µM | > 100 | > 100 | > 100 µM | > 100 | > 100 µM | > 100 | > 100 | > 100 | > 100 | > 100 | > 100 | – | – | – | –
